From article PMC6030209, “Structure-Activity Investigations and Optimisations of Non-metabolite Agonists for the Succinate Receptor 1” (Scientific Reports, 2018)

Key:
mSUCNR1 = target: T1, mSUCNR1 (Mus musculus, UniProt Q99MT6); experiment: IP3 turnover assay in mSUCNR1 transfected HEK-293 cells; type: cell-based
T1 construct: FLAG (own knowledge: pCMV-Tag 2B is an N-terminal FLAG vector); host or cells: HEK-293, transient transfection with Lipofectamine-2000
T1 sequence (Q99MT6 1-317): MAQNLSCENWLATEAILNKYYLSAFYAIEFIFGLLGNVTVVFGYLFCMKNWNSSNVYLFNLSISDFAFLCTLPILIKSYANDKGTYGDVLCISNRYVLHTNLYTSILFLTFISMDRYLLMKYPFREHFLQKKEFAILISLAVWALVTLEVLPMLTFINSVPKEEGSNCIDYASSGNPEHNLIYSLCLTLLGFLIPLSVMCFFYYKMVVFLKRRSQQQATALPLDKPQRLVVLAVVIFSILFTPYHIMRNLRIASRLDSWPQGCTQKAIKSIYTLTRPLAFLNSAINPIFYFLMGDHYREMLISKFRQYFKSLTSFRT
Method: Receptor constructs for mSUCNR1 and hSUCNR1 were bought from Origene and cloned into the eukaryotic expression vector pCMV-Tag(2B) (Stratagene).
Transient transfection of the HEK-293 cells was done with Lipofectamine-2000 according to manufacturer’s protocol. Cells were supplemented with fresh medium after 5 h.
96-well plates were coated with poly-D-lysine and HEK-293 cells were plated (35.000 cells/well). Cells were transfected for 5 h the following day and subsequently incubated O/N with 0.5 μCi/mL myo[3H]inositol (Perkin Elmer) in 100 μL growth medium. On day 3 cells were washed with 200 µL HBSS/well (Gibco, Life Technologies) followed by a pre-incubation (30 min, 37 °C) with 100 µL HBSS supplemented with 10 mM LiCl. Cells were stimulated with ligand (120 min, 37 °C) and lysed with 50 µL 10 mM formic acid (30 min on ice). In a white 96 well plate 20 µL cell extracts and 80 µL 1:8 diluted YSi scintillation beads (Perkin Elmer) were mixed. The plate was spun down, and a Packard Top Count NXT counter recorded light emission (scintillation) after an 8 h delay.

[1] = type: in vitro ADME, mouse; settings: 1 hour, 1 μM, 0.5 mg/mL microsomes
Method: Microsomal stability was studied in mouse liver microsomes (0.5 mg/mL) at a final test compound concentration of 1 μM and performed in triplicates in accordance to the published protocol. In short: Prewarmed (37 °C) 0.1 M PBS7.4, 10 mM NADPH in PBS7.4 and test compound (1 mM in DMSO) were added to an Eppendorf® Tube. The samples were incubated for 5 min at 37 °C before addition of newly thawned microsomes. The samples were mixed by gentle vortexing and incubated for 1 h at 37 °C, 300 rpm in an Eppendorf® Thermomixer. Samples were quenched by addition of ice-cold MeOH/MeCN (1:1) and centrifuged for 5 min at 10,000 g. The supernatant was transferred to HPLC vials and stored in the freezer until analysis by HPLC/UPLC. The metabolic stability was calculated based on a 0 min sample. All compounds were analysed in triplicates.

[2] = logD7.4 determination (1-octanol/PBS7.4 shake flask); type: physicochemical; settings: 1-octanol/PBS7.4, pH 7.4
Method: A glass vial with screw cap (8 mL) was charged with test compound (40 μL, 10 mM in DMSO), PBS7.4 (0.01 M, 1980 μL), and 1-octanol (1980 μL). The vial was capped and sealed with parafilm and shaken at 700 rpm using an IKA® KS 125 basic shaker for 24 h at room temperature. The parafilm was removed and the sample was allowed to equilibrate for 1 h before analysis. 100 μL of the octanol phase was withdrawn and diluted 1:10 with MeOH(+0.1% formic acid)/MilliQ water (4:1, v/v) and analysed by HPLC/UPLC. The interface was removed and the PBS7.4 phase analysed directly by HPLC/UPLC. All analysis was performed in duplicates and logD values were calculated from the peak areas (mAU*min) and adjusted for difference in injection volume and concentration-absorption effects from the solvents, using two calibration points per compound per solvent, and dilution of the octanol phase. All compounds were analysed in triplicates.

[3] = type: physicochemical; settings: after 70 hours in 10 mM PBS7.4, 37 °C
Method: Triplicates of a 50 μM solution of the test compounds were prepared from 0.01 M PBS7.4 and a 10 mM stock solution in DMSO. The samples were incubated in an Eppendorf® Thermomixer (37 °C, 650 rpm). The samples were briefly vortexed and 50 μL aliquots were withdrawn at the time points 0 h, 24 h, 48 h etc. and analysed immediately on UPLC. The chemical stability in PBS7.4 was determined at every time point in percentage relative to the 0 h time point.

physchem = type: physicochemical; settings: pH 7.4, aqueous buffer, kinetic from dmso stock, 10 mM PBS7.4, 25 °C
Method: Duplicates of a 200 μM solution of the dicarboxylic acids were prepared from 0.01 M PBS7.4 and a 10 mM stock solution in DMSO. The samples were incubated in an Eppendorf® Thermomixer (25 °C, 800 rpm) for 24 h. Afterwards, the samples were centrifuged for 5 min at 11,000 rpm and the supernatant was filtered (0.45 μm PTFE membrane) before analysis by HPLC. The solubility was calculated based on a concentration-absorption curve.

[4] = type: in vitro ADME; settings: 2 hours, 37 °C
Method: FaSSIF, FeSSGF and FaSSGF were prepared in accordance to the manufacturers procedure, Biorelevant.com. Triplicates of a 50 μM solution of the test compounds were prepared from a 10 mM stock solution in DMSO diluted with FaSSGF/FaSSIF/FeSSIF. The samples were incubated in an Eppendorf® Thermomixer (37 °C, 650 rpm). Samples were withdrawn at 0 min and 120 min, centrifuged (10 min at 10,000 rpm) and the supernatant analysed by HPLC/UPLC. The stability was calculated based on peak area of a 0 point sample.

SUCNR1 [5] = experiment: Active/inactive grouping by EC50 threshold (ALiBERO training set, Table S1); type: cell-based; settings: active (1) / inactive (0), EC50 threshold of 10 µM
Text: In brief, starting from the homology model supported by mutagenesis data[4], ALiBERO introduced receptor flexibility via Normal Mode Analysis and Monte Carlo sampling, to generate a small subset of receptor models (pockets). […] For a list of all compounds used in the optimisation protocol, see Table S1. Receptor structures were then chosen based on their ability to discriminate actives from inactives in a retrospective virtual screening using the docking protocol and scoring function in ICM (Molsoft L.L.C., San Diego, CA, USA)[20], as measured by the normalised square root area under the curve (NSQ_AUC). […] The ALiBERO-optimised receptor ensemble was subsequently validated in a virtual ligand screening using an external test set with a higher active:decoy ratio (~1:50).
ALiBERO is an iterative sampling-selection protocol for receptor optimisation that relies on the use of ligand information for selecting the best-performing receptor conformations. Homology models of the mouse SUCNR1 receptor were constructed according to Trauelsen et al.[4] and loaded into ICM (Molsoft L.L.C., San Diego, CA, USA). The structure was converted into an ICM object, thereby assigning protein atom types, optimising hydrogens and His, Pro, Asn, […] and Cys side-chain conformations. […] For a list of all compounds used in the optimisation protocol, see Table S1. ALiBERO was performed using the prepared receptor structure and ligand training set as input. Binding site residues were manually selected based on proximity to the position of MRS2500 in the superimposed structure of the P2Y1 receptor (PDB 4XNW). 100 elastic network normal mode analysis derived conformers were built in order to recreate backbone and side-chain flexibility (T = 300 K). Next, a flexible-ligand static-receptor small-scale virtual screening was performed on each of the receptor conformers, from which several pockets were selected for the following generation. The ligand and decoy molecules were docked into mSUCNR1, represented as pre-calculated potential grids and then sorted according to their ICM VLS scores. The maximum number of complementary pockets for each generation was set to 5 with a maximum of 10 generations. Receptor models were selected based on their combined screening performance, as determined by the normalised square root area under the curve, NSQ_AUC. After each round of virtual screening, an all-atom Monte Carlo side-chain refinement was performed to account for induced-by-ligand changes. NSQ_AUC values were calculated according to Katritch et al.[16].

SUCNR1 [6] = settings: full agonist on SUCNR1; cited from earlier work

O=C(O)C[C@H](NC(=O)c1cccc(-c2ccc(OC(F)(F)F)cc2)n1)C(=O)O [Compound 31, (6-(4-(Trifluoromethoxy)phenyl)picolinoyl)-L-aspartic acid]
EC50 (mSUCNR1): 0.178 µM
mSUCNR1 efficacy, % (mSUCNR1; efficacy relative to succinate (100%), IP3 turnover, HEK cells (N = 3)): 69.9 ± 2.2%
stability in mouse liver microsomes [1]: stable
logD at 24 h [2]: -2.13
chemical stability [3]: > 98%
solubility kinetic at 24 h (physchem): > 200 µM
stability in FaSSGF ([4]; simulated gastrointestinal fluid FaSSGF): stable
stability in FaSSIF ([4]; simulated gastrointestinal fluid FaSSIF): stable
Active (SUCNR1 [5]): 1 (active (1))

cis-epoxysuccinic acid
EC50 (SUCNR1 [6]): 2.7 µM
